Data taken from publication PMC11532494 (Nature Communications, 2024).
Values joined by “and” are separate entries in the source; they are usually repeats but may differ in a detail not shown here. Identical values can stand only once. Like-named read-outs stand apart in the source and are kept apart here. No end group written: not given here. *: point of attachment. AMC = Cc1cc(=O)oc2cc(N*)ccc12

What was measured:
VsHdaH (1b) [1] = assay type: biochemical, Vibrio sp.
RsPrpH (1b) [2] = experiment: Substrate screening assay (acyl-peptide-AMC); assay type: biochemical, Rhizorhabdus sp.
RwDmhA (1b) [3] = target: T1, RwDmhA (1b) (Rhizorhabdus wittichii, UniProt A0A067XIQ6); assay type: biochemical
KpHdaH (1b) [4] = target: T2, KpHdaH (1b) (Klebsiella pneumoniae, UniProt A0A377Z5F6); assay type: biochemical
BsAcuC (2c) [5] = target: T3, BsAcuC (2c) (Bacillus subtilis, UniProt P39067); experiment: Substrate screening assay (acyl-peptide-AMC); assay type: biochemical
T3 construct: made in house; host or cells: E. coli BL21 (DE3)
T3 sequence (P39067 1-387): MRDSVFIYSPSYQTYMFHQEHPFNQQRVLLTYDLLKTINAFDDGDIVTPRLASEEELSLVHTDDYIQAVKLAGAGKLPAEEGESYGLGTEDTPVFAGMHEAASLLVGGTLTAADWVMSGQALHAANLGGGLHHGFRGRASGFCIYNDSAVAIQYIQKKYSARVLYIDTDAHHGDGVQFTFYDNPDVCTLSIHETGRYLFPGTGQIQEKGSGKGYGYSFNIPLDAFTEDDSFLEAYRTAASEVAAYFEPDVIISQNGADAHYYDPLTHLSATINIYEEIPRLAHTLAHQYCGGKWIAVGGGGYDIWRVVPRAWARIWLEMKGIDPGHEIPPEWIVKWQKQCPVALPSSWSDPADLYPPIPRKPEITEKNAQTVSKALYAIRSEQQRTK
Protocol: (§1) Experiments with SIRT2 and SIRT5 were supplemented with NAD^+ (500 µM). Thereafter, a solution of trypsin (25 µL, 5.0 mg/mL; final concentration of 2.5 mg/mL) was added, and the development of the assay was allowed to proceed for 90 min at room temperature before fluorescence analysis. […] To this end, a single category is given to all conversions >48% on the heatmap. […] For the H4-derived peptide LGKbio no positive control was available.

VcHdaH (5b) [6] = assay type: biochemical, Vibrio cholerae
PsApaH (4) [7] = target: T4, PsApaH (4) (Pseudomonas sp. M30-35, UniProt A0A1Y0KY79); assay type: biochemical
Protocol: as §1

LcApaH (3) [8] = target: T5, LcApaH (3) (Legionella cherrii, UniProt A0A0W0SGS1); assay type: biochemical
LpApaH (3) [9] = target: T6, LpApaH (3) (Legionella pneumophila, UniProt A0A2S6EWV0); assay type: biochemical
Controls [10] = assay type: biochemical
Controls [11] = assay type: biochemical; remark: listed apart in the source
PsApaH (4) [12] = target: T4, PsApaH (4); experiment: Acetyl-polyamine deacetylase assay; assay type: biochemical; conditions: single samples (replicates)
Target sequence in this assay (A0A1Y0KY79 1-342 limits assumed): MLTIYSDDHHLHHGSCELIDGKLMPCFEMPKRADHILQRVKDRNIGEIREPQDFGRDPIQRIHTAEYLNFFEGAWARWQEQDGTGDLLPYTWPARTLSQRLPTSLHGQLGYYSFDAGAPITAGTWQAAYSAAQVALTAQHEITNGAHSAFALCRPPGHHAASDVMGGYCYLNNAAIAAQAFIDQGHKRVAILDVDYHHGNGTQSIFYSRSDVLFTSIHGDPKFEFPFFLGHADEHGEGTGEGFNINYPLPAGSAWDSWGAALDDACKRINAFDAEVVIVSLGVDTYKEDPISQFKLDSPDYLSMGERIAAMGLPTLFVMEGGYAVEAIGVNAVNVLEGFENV

PA1409 = PA1409 (Pseudomonas aeruginosa, UniProt Q9I3T5); experiment: Acetyl-polyamine deacetylase assay (positive control); assay type: biochemical; conditions: sheet Figure 2d
VsHdaH (1b) [13] = assay type: biochemical, Vibrio sp.; conditions: VsHdaH (1b) 3µM; single samples (replicates)
RsPrpH (1b) [14] = experiment: Acetyl-polyamine deacetylase assay; assay type: biochemical, Rhizorhabdus sp.; conditions: RsPrpH 3µM; single samples (replicates)
RwDmhA (1b) [15] = target: T1, RwDmhA (1b); assay type: biochemical; conditions: RwDmhA (1b) 3µM; single samples (replicates)
Target sequence in this assay (A0A067XIQ6 1-369): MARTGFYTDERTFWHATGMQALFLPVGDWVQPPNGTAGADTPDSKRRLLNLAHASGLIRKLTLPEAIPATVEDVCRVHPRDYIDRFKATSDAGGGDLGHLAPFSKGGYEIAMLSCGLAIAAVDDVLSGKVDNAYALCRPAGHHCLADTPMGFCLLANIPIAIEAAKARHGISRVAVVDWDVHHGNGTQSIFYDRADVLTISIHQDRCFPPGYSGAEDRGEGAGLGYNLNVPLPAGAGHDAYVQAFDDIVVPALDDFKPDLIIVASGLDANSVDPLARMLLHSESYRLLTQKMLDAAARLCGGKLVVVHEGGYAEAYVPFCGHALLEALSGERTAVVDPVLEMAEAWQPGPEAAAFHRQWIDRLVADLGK

KpHdaH (1b) [16] = target: T2, KpHdaH (1b); assay type: biochemical; conditions: KpKDAC (1b); single samples (replicates)
Target sequence in this assay (A0A377Z5F6 1-371): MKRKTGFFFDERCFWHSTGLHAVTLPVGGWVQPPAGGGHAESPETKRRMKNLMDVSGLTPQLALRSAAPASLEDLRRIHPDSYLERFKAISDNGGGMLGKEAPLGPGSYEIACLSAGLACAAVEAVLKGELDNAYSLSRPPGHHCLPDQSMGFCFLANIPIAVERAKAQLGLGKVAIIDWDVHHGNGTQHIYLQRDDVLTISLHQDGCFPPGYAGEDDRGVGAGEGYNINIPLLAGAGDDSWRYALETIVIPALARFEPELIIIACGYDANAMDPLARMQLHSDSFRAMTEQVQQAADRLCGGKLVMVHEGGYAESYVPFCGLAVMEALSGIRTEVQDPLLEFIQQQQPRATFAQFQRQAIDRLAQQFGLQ

BsAcuC (2c) [17] = target: T3, BsAcuC (2c); experiment: Acetyl-polyamine deacetylase assay; assay type: biochemical; conditions: BsAcuC (2c) 3µM; single samples (replicates)
VcHdaH (5b) [18] = experiment: Acetyl-polyamine deacetylase assay; assay type: biochemical, Vibrio cholerae; conditions: VcHdaH (5b) 6µM; single samples (replicates)
LcApaH (3) [19] = target: T5, LcApaH (3); assay type: biochemical; remark: listed apart in the source
Target sequence in this assay (A0A0W0SGS1 1-425): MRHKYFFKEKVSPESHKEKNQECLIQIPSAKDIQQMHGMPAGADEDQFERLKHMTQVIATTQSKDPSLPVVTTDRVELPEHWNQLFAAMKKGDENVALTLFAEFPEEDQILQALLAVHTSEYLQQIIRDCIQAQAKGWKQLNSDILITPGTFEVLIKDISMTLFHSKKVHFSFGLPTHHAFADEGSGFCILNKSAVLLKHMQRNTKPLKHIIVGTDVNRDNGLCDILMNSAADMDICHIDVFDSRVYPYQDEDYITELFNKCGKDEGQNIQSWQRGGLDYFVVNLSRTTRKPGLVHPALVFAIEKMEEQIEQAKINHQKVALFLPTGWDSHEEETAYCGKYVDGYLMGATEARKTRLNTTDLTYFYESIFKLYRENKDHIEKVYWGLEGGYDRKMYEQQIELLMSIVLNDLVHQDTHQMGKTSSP

LpApaH (3) [20] = target: T6, LpApaH (3); assay type: biochemical; remark: listed apart in the source
Target sequence in this assay (A0A2S6EWV0 1-426): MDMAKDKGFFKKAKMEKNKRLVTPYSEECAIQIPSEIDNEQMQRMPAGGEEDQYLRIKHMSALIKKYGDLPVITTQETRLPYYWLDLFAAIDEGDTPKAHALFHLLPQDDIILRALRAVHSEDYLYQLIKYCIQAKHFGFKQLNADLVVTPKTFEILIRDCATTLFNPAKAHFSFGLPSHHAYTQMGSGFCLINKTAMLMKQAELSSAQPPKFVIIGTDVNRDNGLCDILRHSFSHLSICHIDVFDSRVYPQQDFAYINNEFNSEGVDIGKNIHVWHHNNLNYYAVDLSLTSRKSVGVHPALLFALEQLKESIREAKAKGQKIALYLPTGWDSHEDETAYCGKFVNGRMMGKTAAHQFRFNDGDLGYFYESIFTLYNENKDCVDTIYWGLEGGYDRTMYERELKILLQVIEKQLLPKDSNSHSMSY

[21] = substrate screening, mean of two measurements
[22] = substrate screening, measurement 1 of two
[23] = substrate screening, measurement 2 of two

PA1409, sequence (Q9I3T5 whole entry): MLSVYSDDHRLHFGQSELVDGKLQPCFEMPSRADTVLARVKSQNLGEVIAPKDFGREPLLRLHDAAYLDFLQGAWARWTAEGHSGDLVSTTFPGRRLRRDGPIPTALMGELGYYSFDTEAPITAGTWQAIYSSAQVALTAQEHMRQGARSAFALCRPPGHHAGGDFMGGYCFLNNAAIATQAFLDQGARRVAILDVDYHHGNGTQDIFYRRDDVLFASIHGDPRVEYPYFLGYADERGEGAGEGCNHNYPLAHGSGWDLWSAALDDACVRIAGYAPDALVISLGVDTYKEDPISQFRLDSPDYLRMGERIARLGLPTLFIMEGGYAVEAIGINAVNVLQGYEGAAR

QPKKlau (QPKK-{AMC}; not fully specified (residue 4); printed as QPKKlau; also: lauroyl-lysine (which Lys not given here); UniProt P04637 317-320, looked up, fragment)
RFU means, VsHdaH (1b) (VsHdaH (1b) [1]; means of two measurements): -74 RFU | RFU*2 means, VsHdaH (1b) (VsHdaH (1b) [1]; means of two measurements): -148 RFU*2 | [AMC] (nM), VsHdaH (1b), means (VsHdaH (1b) [1]; [21]): -72.27 nM | [AMC] (nM), VsHdaH (1b) (VsHdaH (1b) [1]; [22]): -150.39 nM | [AMC] (nM), VsHdaH (1b) (VsHdaH (1b) [1]; [23]): 5.86 nM | RFU means, RsPrpH (1b) (RsPrpH (1b) [2]): -143.5 RFU | RFU*2 means, RsPrpH (1b) (RsPrpH (1b) [2]): -287 RFU*2 | [AMC] (nM), RsPrpH (1b), means (RsPrpH (1b) [2]): -140.14 nM | RFU means, RwDmhA (1b) (RwDmhA (1b) [3]): -41 RFU | RFU*2 means, RwDmhA (1b) (RwDmhA (1b) [3]): -82 RFU*2 | [AMC] (nM), RwDmhA (1b), means (RwDmhA (1b) [3]): -40.04 nM | RFU means, KpHdaH (1b) (KpHdaH (1b) [4]; means of two measurements): -136.5 RFU | RFU*2 means, KpHdaH (1b) (KpHdaH (1b) [4]; means of two measurements): -273 RFU*2 | [AMC] (nM), KpHdaH (1b), means (KpHdaH (1b) [4]; [21]): -133.30 nM | [AMC] (nM), KpHdaH (1b) (KpHdaH (1b) [4]; [22]): -172.85 nM | [AMC] (nM), KpHdaH (1b) (KpHdaH (1b) [4]; [23]): -93.75 nM | RFU means, BsAcuC (2c) (BsAcuC (2c) [5]; means of two measurements): 849.5 RFU | RFU*2 means, BsAcuC (2c) (BsAcuC (2c) [5]; means of two measurements): 1699 RFU*2 | [AMC] (nM), BsAcuC (2c), means (BsAcuC (2c) [5]; [21]): 829.59 nM | RFU*2, BsAcuC (2c) (BsAcuC (2c) [5]; two measurements, single values): 2008 RFU*2 and 1390 RFU*2 | RFU means, VcHdaH (5b) (VcHdaH (5b) [6]; means of two measurements): -82 RFU | RFU*2 means, VcHdaH (5b) (VcHdaH (5b) [6]; means of two measurements): -164 RFU*2 | [AMC] (nM), VcHdaH (5b), means (VcHdaH (5b) [6]; [21]): -80.08 nM | RFU means, PsApaH (4) (PsApaH (4) [7]; means of two measurements): 131 RFU | RFU*2 means, PsApaH (4) (PsApaH (4) [7]; means of two measurements): 262 RFU*2 | [AMC] (nM), PsApaH (4), means (PsApaH (4) [7]; [21]): 127.93 nM | [AMC] (nM), PsApaH (4) (PsApaH (4) [7]; [22]): 191.41 nM | [AMC] (nM), PsApaH (4) (PsApaH (4) [7]; [23]): 64.45 nM | RFU means, LcApaH (3) (LcApaH (3) [8]): 6.5 RFU | RFU*2 means, LcApaH (3) (LcApaH (3) [8]): 13 RFU*2 | [AMC] (nM), LcApaH (3), means (LcApaH (3) [8]): 6.35 nM | RFU means, LpApaH (3) (LpApaH (3) [9]): 10.5 RFU | RFU*2 means, LpApaH (3) (LpApaH (3) [9]): 21 RFU*2 | [AMC] (nM), LpApaH (3), means (LpApaH (3) [9]): 10.25 nM | RFU means, controls (Controls [10]): 11610 RFU | RFU*2, controls (Controls [10]): 21150 RFU*2 and 25290 RFU*2 | RFU*2 means, controls (Controls [10]): 23220 RFU*2 | RFU, controls (Controls [10]): 10575 RFU and 12645 RFU | [AMC] (nM), controls, means (Controls [11]): 11337.89 nM

CC(=O)NCCCCNCCCN [N8-acetyl-spermidine]
acetate released, g/l (PsApaH (4) [12]): 0.04138 g/L and 0.04164 g/L and 0.04191 g/L | acetate released, mM (PsApaH (4) [12]): 0.6891 mM and 0.6935 mM and 0.6978 mM | A1-A2 (PA1409; absorbance difference between the two time points): 0.581 and 0.564 | (A1-A2)-B (PA1409; absorbance difference minus mean blank): 0.5395 and 0.5225 | acetate released, g/l (VsHdaH (1b) [13]): 0.002742 g/L and 0.003003 g/L | acetate released, mM (VsHdaH (1b) [13]): 0.04565 mM and 0.05 mM | mM normalized to enzyme concentration (VsHdaH (1b) [13]): 0.01522 mM and 0.01667 mM and 0.02536 mM | acetate released, g/l (RsPrpH (1b) [14]): 0.01005 g/L and 0.01371 g/L and 0.01762 g/L | acetate released, mM (RsPrpH (1b) [14]): 0.1674 mM and 0.2283 mM and 0.2935 mM | mM normalized to enzyme concentration (RsPrpH (1b) [14]): 0.0558 mM and 0.07609 mM and 0.09783 mM | acetate released, g/l (RwDmhA (1b) [15]): 0.005875 g/L and 0.0006527 g/L | acetate released, mM (RwDmhA (1b) [15]): 0.09783 mM and 0.01087 mM | mM normalized to enzyme concentration (RwDmhA (1b) [15]): 0.02246 mM and 0.03261 mM and 0.003623 mM | acetate released, g/l (KpHdaH (1b) [16]): -0.006957 g/L and 0.01217 g/L and 0.008116 g/L | acetate released, mM (KpHdaH (1b) [16]): -0.1158 mM and 0.2027 mM and 0.1352 mM | mM normalized to enzyme concentration (KpHdaH (1b) [16]): -0.02317 mM and 0.04055 mM and 0.02703 mM | acetate released, g/l (BsAcuC (2c) [17]): 0.006919 g/L and 0.003003 g/L and 0.003525 g/L | acetate released, mM (BsAcuC (2c) [17]): 0.1152 mM and 0.05 mM and 0.0587 mM | mM normalized to enzyme concentration (BsAcuC (2c) [17]): 0.03841 mM and 0.01667 mM and 0.01957 mM | acetate released, g/l (VcHdaH (5b) [18]): 0.002219 g/L and 0.004047 g/L and 0.004569 g/L | acetate released, mM (VcHdaH (5b) [18]): 0.03696 mM and 0.06739 mM and 0.07609 mM | mM normalized to enzyme concentration (VcHdaH (5b) [18]): 0.006159 mM and 0.01123 mM and 0.01268 mM | acetate released, g/l (LcApaH (3) [19]): 0.008058 g/L and 0.009115 g/L | acetate released, mM (LcApaH (3) [19]): 0.1342 mM and 0.1518 mM | mM normalized to enzyme concentration (LcApaH (3) [19]): 0.1342 mM and 0.1518 mM | acetate released, g/l (LpApaH (3) [20]): 0.00515 g/L and 0.00674 g/L | acetate released, mM (LpApaH (3) [20]): 0.09 mM and 0.11 mM | mM normalized to enzyme concentration (LpApaH (3) [20]): 0.0429 mM and 0.0561 mM
